Results from patent US7557213B2, “Substituted quinolones and methods of use” (ChemoCentryx, Inc., priority 2005, dated 2009).
Read-outs that look alike come from different tables or passages of the source.

Target: T1, CCXCKR2 receptor (Homo sapiens, UniProt P25106)
T1 construct: expressed in transfected cells; host or cells: MDA-MB-435S transfected with pcDNA3.1(+)-hRDC1 and/or MCF-7 (endogenous receptor)
Test: Displacement of 125I-labeled SDF-1 from the CCXCKR2 receptor on MCF-7 and/or CCXCKR2-transfected MDA-MB-435S cells (radioligand binding, filtration)

[1] = 125I SDF-1, 3 hr at 4° C., MCF-7 and/or MDA-MB-435S cells, read-out: Activity (concentration displacing at least 50% of the SDF-1 from the CCXCKR2 receptor)

T1 sequence (P25106 whole entry): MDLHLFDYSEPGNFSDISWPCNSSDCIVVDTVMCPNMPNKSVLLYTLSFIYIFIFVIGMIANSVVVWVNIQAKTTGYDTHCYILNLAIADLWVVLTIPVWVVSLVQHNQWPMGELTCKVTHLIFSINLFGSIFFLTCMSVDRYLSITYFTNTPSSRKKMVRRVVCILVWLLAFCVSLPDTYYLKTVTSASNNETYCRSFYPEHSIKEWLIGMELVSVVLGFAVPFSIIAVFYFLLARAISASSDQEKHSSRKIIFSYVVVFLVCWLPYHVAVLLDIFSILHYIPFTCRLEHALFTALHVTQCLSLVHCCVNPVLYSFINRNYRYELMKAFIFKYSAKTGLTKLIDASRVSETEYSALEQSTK

SMILES | IC50 [1] | IC50
Cc1ccc(C(=O)c2cn(Cc3cccc(F)n3)c3ccccc3c2=O)cc1C [Example 70] | – | < 100 nM
Cc1ccc(C(=O)c2cn(Cc3cccc(N4CCOCC4)n3)c3ccccc3c2=O)cc1C [Example 71] | 100 to 500 nM | –
Cc1ccc(C(=O)c2c(C)n(Cc3cccc(Br)n3)c3ccccc3c2=O)cc1C [Example 72] | 500 to 20000 nM | –
Cc1ccc(C(=O)c2cn(Cc3cccc(S(C)(=O)=O)n3)c3ccccc3c2=O)cc1C [Example 78] | 100 to 500 nM | –
Cc1ccc(C(=O)c2cn(Cc3cccc(C(=O)O)n3)c3ccccc3c2=O)cc1C [Example 83] | 500 to 20000 nM | –
Cc1cc(C(=O)c2cn(C(C)c3cccc(Br)n3)c3ccccc3c2=O)cnc1C (stereo not drawn) [Example 84] | 500 to 20000 nM | –
Cc1ccc(C(=O)c2cn(Cc3cccc(C(N)=O)n3)c3ccccc3c2=O)cc1C [Example 86] | 500 to 20000 nM | –
Cc1ccc(C(=O)c2cn(Cc3cccc(NC(=O)C(F)(F)F)n3)c3ccccc3c2=O)cc1C [Example 87] | < 100 nM | –
Cc1ccc(C(=O)c2cn(Cc3cccc(Br)[n+]3[O-])c3ccccc3c2=O)cc1C [Example 88] | 100 to 500 nM | –
O=C(c1ccc2c(n1)CCCC2)c1cn(Cc2cccc(Br)n2)c2ccccc2c1=O [Example 89] | < 100 nM | –
Cc1ccc(C(=O)c2cn(Cc3cccc(N)n3)c3ccccc3c2=O)nc1C [Example 90] | < 100 nM | –
Cc1cc(C(=O)c2cn(Cc3cccc(N)n3)c3ccccc3c2=O)cnc1C [Example 91] | < 100 nM | –
Cc1ccc(C(=O)c2cn(Cc3cccc(N(C)C)n3)c3ccccc3c2=O)cc1C [Example 92] | 500 to 20000 nM | –
CNc1cccc(Cn2cc(C(=O)c3ccc(C)c(C)c3)c(=O)c3ccccc32)n1 [Example 93] | < 100 nM | –
Cc1cnc(C(=O)c2cn(Cc3cccc(Br)n3)c3ccccc3c2=O)cc1C [Example 94] | < 100 nM | –
Cc1ccc(C(=O)c2cn(Cc3ccccc3-c3cncnc3)c3ccccc3c2=O)cc1C [Example 95] | 500 to 20000 nM | –
Cc1cccc(Cn2cc(C(=O)c3ccc(C)c(C)n3)c(=O)c3ccccc32)n1 [Example 96] | < 100 nM | –

The next lines start with results.

IC50 [1] | SMILES | IC50
< 100 nM | Cc1ccc(C(=O)c2cn(Cc3cccc(Br)n3)c3ccccc3c2=O)nc1C [Example 64] | –
< 100 nM | Cc1ccc(C(=O)c2cn(Cc3ccc(C(F)(F)F)o3)c3ccccc3c2=O)cc1C [Example 65] | –
< 100 nM | Cc1ccc(C(=O)c2cn(Cc3cccc(C(F)(F)F)n3)c3ccccc3c2=O)cc1C [Example 66] | –
< 100 nM | Cc1cc(C(=O)c2cn(Cc3cccc(Br)n3)c3ccc(F)cc3c2=O)cnc1C [Example 67] | –
< 100 nM | Cc1ccc(C(=O)c2cn(Cc3cccc(N4CCCCC4)n3)c3ccccc3c2=O)cc1C [Example 68] | –
< 100 nM | COc1cccc(Cn2cc(C(=O)c3ccc(C)c(C)c3)c(=O)c3ccccc32)n1 [Example 69] | –
< 100 nM | Cc1ccc(C(=O)c2cn(Cc3cccc(Br)n3)c3cc(F)c(F)cc3c2=O)cc1C [Example 73] | –
< 100 nM | Cc1ccc(C(=O)c2cn(Cc3cccc(C4CC4)n3)c3ccccc3c2=O)cc1C [Example 74] | –
< 100 nM | Cc1ccc(C(=O)c2cn(C(C)c3cccc(Br)n3)c3ccccc3c2=O)cc1C (stereo not drawn) [Example 75] | –
< 100 nM | Cc1ccc(C(=O)c2cn(C(C)c3cccc(Br)n3)c3ccccc3c2=O)nc1C (stereo not drawn) [Example 76] | –
< 100 nM | CSc1cccc(Cn2cc(C(=O)c3ccc(C)c(C)c3)c(=O)c3ccccc32)n1 [Example 77] | –
< 100 nM | Cc1ccc(C(=O)c2cn(Cc3cccc(C(F)(F)F)n3)c3ccccc3c2=O)nc1C [Example 79] | –
< 100 nM | Cc1ccc(C(=O)c2cn(Cc3cccc(C#N)n3)c3ccccc3c2=O)nc1C [Example 80] | –
< 100 nM | Cc1ccc(C(=O)c2cn(Cc3cccc(C#N)n3)c3ccccc3c2=O)cc1C [Example 81] | –
< 100 nM | Cc1cc(C(=O)c2cn(Cc3cccc(C(F)(F)F)n3)c3ccccc3c2=O)cnc1C [Example 82] | –
< 100 nM | Cc1cc(C(=O)c2cn(Cc3cccc(C#N)n3)c3ccccc3c2=O)cnc1C [Example 85] | –
